Each structure is given as a SMILES string. Bridge positions count the residues as written; N and C are the ends. Square brackets hold non-standard residues; d marks the D form. Peptide text beside a SMILES is read from it. * marks the point of attachment. ξ: configuration not given here. Phe(4-CONH2) = NC(=O)c1ccc(C[C@H](N)C(=O)O)cc1; Phe(4-COOH) = N[C@@H](Cc1ccc(C(=O)O)cc1)C(=O)O; Bip = N[C@@H](Cc1ccc(-c2ccccc2)cc1)C(=O)O; NH(CH2)14COOH = O=C(O)CCCCCCCCCCCCCCN*; Phe(3-Me) = Cc1cccc(C[C@H](N)C(=O)O)c1; Val(3-OH) = CC(C)(O)[C@H](N)C(=O)O; hArg = N=C(N)NCCCC[C@H](N)C(=O)O; 4Pal = N[C@@H](Cc1ccncc1)C(=O)O; Cha = N[C@@H](CC1CCCCC1)C(=O)O; Thr(3ξ) = CC(O)[C@H](N)C(=O)O; dNle = CCCC[C@@H](N)C(=O)O; Carboxymethyl = O=C(O)C*; Orn = NCCC[C@H](N)C(=O)O; Pra = C#CC[C@H](N)C(=O)O; Aun = NCCCCCCCCCCC(=O)O; Dab = NCC[C@H](N)C(=O)O; Dap = NC[C@H](N)C(=O)O; AEEA = NCCOCCOCC(=O)O

A word on the IC50: it is the concentration that inhibits the measured activity by half.

For this assay, the target named is T1, PD-1/PD-L1 interaction (PE-labeled human PD-L1-Ig binding to Jurkat cell line over-expressing human PD-1) (Homo sapiens, UniProt Q15116).
T1 construct: expressed in transfected cells; host or cells: Jurkat
T1 sequence (Q15116 25-288): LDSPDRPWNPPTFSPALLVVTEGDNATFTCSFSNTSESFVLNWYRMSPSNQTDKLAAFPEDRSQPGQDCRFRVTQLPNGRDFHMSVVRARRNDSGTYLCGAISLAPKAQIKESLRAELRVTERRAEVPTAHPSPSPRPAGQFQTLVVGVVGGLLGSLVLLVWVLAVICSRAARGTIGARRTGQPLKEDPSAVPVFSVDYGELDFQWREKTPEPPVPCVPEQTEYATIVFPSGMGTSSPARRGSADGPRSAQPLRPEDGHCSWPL
Nature of the assay: Jurkat-PD-1 Cell Binding High-Content Screening Assay (CBA). Conditions: Jurkat cell line over-expressing human PD-1; PE-labeled PD-L1-Ig 20 nM final; read-out: Jurkat hPD1-PDL1 IC50. It is filed as cell-based. The method, boiled down:
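Read-out is high-content imaging of cell-bound phycoerythrin-tagged PD-L1-Ig on fixed, Hoechst-counterstained Jurkat cells that over-express human PD-1. Compound exposure lasts 2 h at 37° C before the labeled ligand (20 nM final) is added for a further hour.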
On to `Cc1cccc(C[C@@H]2NC(=O)[C@H](CC(=O)O)NC(=O)[C@H](Cc3ccc(OCC(=O)O)cc3)NC(=O)[C@H](CN)NC(=O)CSC[C@@H](C(=O)N[C@@H](CCCCN)C(=O)NCCCCCCCCCCC(=O)O)NC(=O)[C@H](C(C)O)NC(=O)[C@H](C(C)C)NC(=O)[C@H](CC3CCCCC3)NC(=O)[C@H](CCN)NC(=O)[C@@H](CC(C)C)NC(=O)[C@H](CCCN)NC(=O)[C@H](Cc3ccc(O)cc3)NC(=O)[C@H](Cc3ccc(-c4ccccc4)cc3)NC(=O)[C@H](C(C)C)NC2=O)c1` (stereo partly drawn) [Compound 2589] ({CH2CO}-[Dap]Y(Carboxymethyl)D[Phe(3-Me)]V[Bip]Y[Orn][dL][Dab][Cha]V[Thr(3ξ)]CK[Aun]-OH; thioether N-14), for which the IC50 was 13.6 nM. The result for `Cc1cccc(C[C@@H]2NC(=O)[C@H](CC(=O)O)NC(=O)[C@H](Cc3ccc(OCC(=O)O)cc3)NC(=O)[C@H](Cc3ccncc3)NC(=O)CSC[C@@H](C(=O)N[C@@H](CCN)C(=O)NCCCCCCCCCCC(=O)O)NC(=O)[C@H](CO)NC(=O)[C@H](C(C)(C)O)NC(=O)[C@H](CC3CCCCC3)NC(=O)[C@H](CCN)NC(=O)[C@@H](CC(C)C)NC(=O)[C@H](CCCN)NC(=O)[C@H](Cc3ccc(OCC(=O)O)cc3)NC(=O)[C@H](Cc3ccc(-c4ccccc4)cc3)NC(=O)[C@H](Cc3ccc(C(N)=O)cc3)NC2=O)c1` [Compound 2192] ({CH2CO}-[4Pal]Y(Carboxymethyl)D[Phe(3-Me)][Phe(4-CONH2)][Bip]Y(Carboxymethyl)[Orn][dL][Dab][Cha][Val(3-OH)]SC[Dab][Aun]-OH; thioether N-14) reads 7.7 nM; that for `CC(C)C[C@H]1NC(=O)[C@H](CCCN)NC(=O)[C@H](C(C)C)NC(=O)[C@H](Cc2ccc(-c3ccccc3)cc2)NC(=O)[C@H](C(C)C)NC(=O)[C@H](Cc2c[nH]c3ccccc23)NC(=O)[C@H](CC(=O)O)NC(=O)[C@H](Cc2ccc(OCC(=O)O)cc2)NC(=O)[C@H](CN)NC(=O)CSC[C@@H](C(=O)N[C@H](Cc2cnc[nH]2)C(=O)NCCCCCCCCCCC(=O)O)NC(=O)[C@H]([C@@H](C)O)NC(=O)[C@H](C(C)C)NC(=O)[C@H](CC2CCCCC2)NC(=O)[C@H](Cc2cnc[nH]2)NC1=O` [Compound 1124] ({CH2CO}-[Dap]Y(Carboxymethyl)DWV[Bip]V[Orn][dL]H[Cha]VTC[dH][Aun]-OH; thioether N-14), 38.2 nM.

With `Cc1cccc(C[C@@H]2NC(=O)[C@H](CC(=O)O)NC(=O)[C@H](Cc3ccc(OCC(=O)O)cc3)NC(=O)[C@H](C(C)O)NC(=O)CSC[C@@H](C(=O)N[C@@H](CCN)C(=O)NCCCCCCCCCCC(=O)O)NC(=O)[C@H](C(C)O)NC(=O)[C@H](C(C)C)NC(=O)[C@H](CC3CCCCC3)NC(=O)[C@H](CCN)NC(=O)[C@@H](CC(C)C)NC(=O)[C@H](CCCN)NC(=O)[C@H](CCC(=O)O)NC(=O)[C@H](Cc3ccc(-c4ccccc4)cc3)NC(=O)[C@H](C(C)C)NC2=O)c1` (stereo partly drawn) [Compound 3441] ({CH2CO}-[Thr(3ξ)]Y(Carboxymethyl)D[Phe(3-Me)]V[Bip]E[Orn][dL][Dab][Cha]V[Thr(3ξ)]C[Dab][Aun]-OH; thioether N-14), the concentration for half-maximal inhibition (IC50) is 39.7 nM.

Consider `CC(C)C[C@H]1NC(=O)[C@H](CCCN)NC(=O)[C@H](C(C)C)NC(=O)[C@H](Cc2ccc(-c3ccccc3)cc2)NC(=O)[C@H](C(C)C)NC(=O)[C@H](Cc2c[nH]c3ccccc23)NC(=O)[C@H](CC(=O)O)NC(=O)[C@H](Cc2ccc(OCC(=O)O)cc2)NC(=O)[C@H](CN)NC(=O)CSC[C@@H](C(=O)N[C@@H](C)C(=O)N[C@@H](CO)C(=O)NCCCCCCCCCCC(=O)O)NC(=O)[C@H]([C@@H](C)O)NC(=O)[C@H](C(C)C)NC(=O)[C@H](CC2CCCCC2)NC(=O)[C@H](Cc2cnc[nH]2)NC1=O` [Compound 1114] ({CH2CO}-[Dap]Y(Carboxymethyl)DWV[Bip]V[Orn][dL]H[Cha]VTCAS[Aun]-OH; thioether N-14), for which the IC50 is 61 nM. As for `C#CC[C@H](NC(=O)COCCOCCNC(=O)[C@H](CCCN)NC(=O)[C@@H]1CSCC(=O)N[C@@H](Cc2ccncc2)C(=O)N[C@@H](Cc2ccc(OCC(=O)O)cc2)C(=O)N[C@@H](CC(=O)O)C(=O)N[C@@H](Cc2c[nH]c3ccccc23)C(=O)N[C@@H](C(C)C)C(=O)N[C@@H](Cc2ccc(-c3ccccc3)cc2)C(=O)N[C@@H]([C@@H](C)CC)C(=O)N[C@@H](CCCN)C(=O)N[C@H](CC(C)C)C(=O)N[C@@H](CCN)C(=O)N[C@@H](CC(C)C)C(=O)N[C@@H](C(C)C)C(=O)N[C@@H]([C@@H](C)O)C(=O)N1)C(=O)N[C@@H](CCCN)C(=O)NCCCCCCCCCCC(=O)O` [Compound 1201] ({CH2CO}-[4Pal]Y(Carboxymethyl)DWV[Bip]I[Orn][dL][Dab]LVTC[Orn][AEEA][Pra][Orn][Aun]-OH; thioether N-14), the half-inhibitory concentration (IC50) was 7.6 nM. Next, `Cc1cccc(C[C@@H]2NC(=O)[C@H](CC(=O)O)NC(=O)[C@H](Cc3ccc(OCC(=O)O)cc3)NC(=O)[C@H](CN)NC(=O)CSC[C@@H](C(=O)N[C@@H](CCCCN)C(=O)NCCCCCCCCCCC(=O)O)NC(=O)[C@H](CCCN)NC(=O)[C@H](C(C)C)NC(=O)[C@H](CC3CCCCC3)NC(=O)[C@H](CCN)NC(=O)[C@@H](CC(C)C)NC(=O)[C@H](CCCN)NC(=O)[C@H](C(C)C)NC(=O)[C@H](Cc3ccc(-c4ccccc4)cc3)NC(=O)[C@H](C(C)C)NC2=O)c1` [Compound 2535] ({CH2CO}-[Dap]Y(Carboxymethyl)D[Phe(3-Me)]V[Bip]V[Orn][dL][Dab][Cha]V[Orn]CK[Aun]-OH; thioether N-14): 6.4 nM.

In the case of `CC(C)C[C@H]1NC(=O)[C@H](CCCN)NC(=O)[C@H](C(C)C)NC(=O)[C@H](Cc2ccc(-c3ccccc3)cc2)NC(=O)[C@H](C(C)C)NC(=O)[C@H](Cc2c[nH]c3ccccc23)NC(=O)[C@H](CC(=O)O)NC(=O)[C@H](Cc2ccc(C(=O)O)cc2)NC(=O)[C@H](C(C)O)NC(=O)CSC[C@@H](C(=O)N[C@@H](C)C(=O)N[C@@H](CCCCN)C(=O)NCCCCCCCCCCCCCCC(=O)O)NC(=O)[C@H](C(C)O)NC(=O)[C@H](C(C)C)NC(=O)[C@H](CC2CCCCC2)NC(=O)[C@H](CCN)NC1=O` (stereo partly drawn) [Compound 3021] ({CH2CO}-[Thr(3ξ)][Phe(4-COOH)]DWV[Bip]V[Orn][dL][Dab][Cha]V[Thr(3ξ)]CAK-{NH(CH2)14COOH}; thioether N-14), the half-maximal inhibitory concentration (IC50) was 130 nM.

As for `CC(C)C[C@H]1NC(=O)[C@H](CCCN)NC(=O)[C@H](C(C)C)NC(=O)[C@H](Cc2ccc(-c3ccccc3)cc2)NC(=O)[C@H](C(C)C)NC(=O)[C@H](Cc2c[nH]c3ccccc23)NC(=O)[C@H](CC(=O)O)NC(=O)[C@H](Cc2ccc(OCC(=O)O)cc2)NC(=O)[C@H](CCCCNC(=N)N)NC(=O)CSC[C@@H](C(=O)NCC(=O)NCCOCCOCC(=O)N[C@@H](CCCN)C(=O)NCCCCCCCCCCC(=O)O)NC(=O)[C@H](CCCN)NC(=O)[C@H](C(C)C)NC(=O)[C@H](CC2CCCCC2)NC(=O)[C@H](CC(N)=O)NC1=O` [Compound 3203] ({CH2CO}-[hArg]Y(Carboxymethyl)DWV[Bip]V[Orn][dL]N[Cha]V[Orn]CG[AEEA][Orn][Aun]-OH; thioether N-14), the IC50 is 28.4 nM.

Take `CCCC[C@H]1NC(=O)[C@H](CCCN)NC(=O)[C@H](C(C)C)NC(=O)[C@H](Cc2ccc(-c3ccccc3)cc2)NC(=O)[C@H](C(C)C)NC(=O)[C@H](Cc2c[nH]c3ccccc23)NC(=O)[C@H](CC(=O)O)NC(=O)[C@H](Cc2ccc(OCC(=O)O)cc2)NC(=O)[C@H](CN)NC(=O)CSC[C@@H](C(=O)NCCOCCOCC(=O)N[C@@H](CCN)C(=O)NCCCCCCCCCCC(=O)O)NC(=O)[C@H](CCCCN)NC(=O)[C@H](C(C)C)NC(=O)[C@H](CC2CCCCC2)NC(=O)[C@H](CCN)NC1=O` [Compound 2672] ({CH2CO}-[Dap]Y(Carboxymethyl)DWV[Bip]V[Orn][dNle][Dab][Cha]VKC[AEEA][Dab][Aun]-OH; thioether N-14): the concentration for half-maximal inhibition (IC50) came to 22.7 nM. The result for `CCCC[C@H]1NC(=O)[C@H](CCCN)NC(=O)[C@H](C(C)C)NC(=O)[C@H](Cc2ccc(-c3ccccc3)cc2)NC(=O)[C@H](C(C)C)NC(=O)[C@H](Cc2cccc(C)c2)NC(=O)[C@H](CC(=O)O)NC(=O)[C@H](Cc2ccc(OCC(=O)O)cc2)NC(=O)[C@H](CN)NC(=O)CSC[C@@H](C(=O)N[C@@H](CCCCN)C(=O)NCCCCCCCCCCC(=O)O)NC(=O)[C@H](CCCN)NC(=O)[C@H](C(C)C)NC(=O)[C@H](CC2CCCCC2)NC(=O)[C@H](CCN)NC1=O` [Compound 2687] ({CH2CO}-[Dap]Y(Carboxymethyl)D[Phe(3-Me)]V[Bip]V[Orn][dNle][Dab][Cha]V[Orn]CK[Aun]-OH; thioether N-14) reads 10 nM; that for `Cc1cccc(C[C@@H]2NC(=O)[C@H](CC(=O)O)NC(=O)[C@H](Cc3ccc(OCC(=O)O)cc3)NC(=O)[C@H](CCCNC(=N)N)NC(=O)CSC[C@@H](C(=O)N[C@@H](CCN)C(=O)NCCCCCCCCCCC(=O)O)NC(=O)[C@H](CCC(N)=O)NC(=O)[C@H](C(C)(C)O)NC(=O)[C@H](CC3CCCCC3)NC(=O)[C@H](CCN)NC(=O)[C@@H](CC(C)C)NC(=O)[C@H](CCCN)NC(=O)[C@H](Cc3ccc(OCC(=O)O)cc3)NC(=O)[C@H](Cc3ccc(-c4ccccc4)cc3)NC(=O)[C@H](Cc3ccc(OCC(=O)O)cc3)NC2=O)c1` [Compound 3533] ({CH2CO}-RY(Carboxymethyl)D[Phe(3-Me)]Y(Carboxymethyl)[Bip]Y(Carboxymethyl)[Orn][dL][Dab][Cha][Val(3-OH)]QC[Dab][Aun]-OH; thioether N-14), 5.1 nM. The result for `CC(C)C[C@H]1NC(=O)[C@H](CCCN)NC(=O)[C@H](C(C)C)NC(=O)[C@H](Cc2ccc(-c3ccccc3)cc2)NC(=O)[C@H](C(C)C)NC(=O)[C@H](Cc2c[nH]c3ccccc23)NC(=O)[C@H](CC(=O)O)NC(=O)[C@H](Cc2c[nH]cn2)NC(=O)[C@H](CCCCNC(=N)N)NC(=O)CSC[C@@H](C(=O)N[C@@H](CCN)C(=O)NCCCCCCCCCCC(=O)O)NC(=O)[C@H](CCC(N)=O)NC(=O)[C@H](C(C)C)NC(=O)[C@H](CC2CCCCC2)NC(=O)[C@H](CCN)NC1=O` [Compound 3273] ({CH2CO}-[hArg]HDWV[Bip]V[Orn][dL][Dab][Cha]VQC[Dab][Aun]-OH; thioether N-14) reads 27.5 nM.

(Values after US20260022142A1, “MACROCYCLIC IMMUNOMODULATORS” (Bristol-Myers Squibb Company, priority 2022, published 2026).)
